Laboratory results published in US20240327393A1 (SIRONAX LTD., priority 2021, published 2024).

Test system: HT-1080 (ATCC, CCL-121) cells
Assay: HT-1080 cell viability assay with ferroptosis inducer RSL3 (Cell Titer-Glo)
Format: cell-based
Conditions: Homo sapiens; HT-1080 cells treated with RSL3; 3-fold, 10-point dilution, 1.1 μM highest concentration; Table 2; read-out: EC50 (nM), ferroptosis inhibitory activity
How it was run: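 HT-1080 cells (6000 per well) were cultured overnight at 37 °C, then co-treated with RSL3 and compound in a 3-fold, 10-point series topping at 1.1 μM. Viability was read by CellTiter-Glo luminescence and normalized to untreated controls. EC50 came from a sigmoidal non-linear regression fit.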

Row | EC50 [nM] | SMILES
1 | 0.1 to 100 | Cc1cc(Nc2ccc3c(c2)n(C)c(=O)n3C)cnc1N1CCC(C(F)(F)F)CC1 [Compound 371, 1,3-dimethyl-5-((5-methyl-6-(4-(trifluoromethyl)piperidin-1-yl)pyridin-3-yl)amino)-1,3-dihydro-2H-benzo[d]imidazol-2-one]
2 | 0.1 to 100 | COc1cc(Nc2ccc3c(c2)n(C)c(=O)n3C)cnc1N1CCC(C(F)(F)F)CC1 [Compound 372, 5-((5-methoxy-6-(4-(trifluoromethyl)piperidin-1-yl)pyridin-3-yl)amino)-1,3-dimethyl-1,3-dihydro-2H-benzo[d]imidazol-2-one]
3 | 0.1 to 100 | Cc1nc(N2CCC(C(F)(F)F)CC2)ccc1Nc1ccc2c(c1)n(C)c(=O)n2C [Compound 373, 1,3-dimethyl-5-((2-methyl-6-(4-(trifluoromethyl)piperidin-1-yl)pyridin-3-yl)amino)-1,3-dihydro-2H-benzo[d]imidazol-2-one]
4 | 0.1 to 100 | COc1cc(N2CCC(C(F)(F)F)CC2)ccc1Nc1ccc2c(c1)n(C)c(=O)n2C [Compound 375, 5-((2-methoxy-4-(4-(trifluoromethyl)piperidin-1-yl)phenyl)amino)-1,3-dimethyl-1,3-dihydro-2H-benzo[d]imidazol-2-one]
5 | 0.1 to 100 | COc1nc(N2CCC(C(F)(F)F)CC2)ccc1Nc1ccc2c(c1)n(C)c(=O)n2C [Compound 377, 5-((2-methoxy-6-(4-(trifluoromethyl)piperidin-1-yl)pyridin-3-yl)amino)-1,3-dimethyl-1,3-dihydro-2H-benzo[d]imidazol-2-one]
6 | 0.1 to 100 | Cc1cc(N2CCC(C(F)(F)F)CC2)ncc1Nc1ccc2c(c1)n(C)c(=O)n2C [Compound 379, 1,3-dimethyl-5-((4-methyl-6-(4-(trifluoromethyl)piperidin-1-yl)pyridin-3-yl)amino)-1,3-dihydro-2H-benzo[d]imidazol-2-one]
7 | 0.1 to 100 | Cn1c(=O)oc2cc(Nc3ccc(N4CCC(CF)CC4)cc3)ccc21 [Compound 387, 6-((4-(4-(fluoromethyl)piperidin-1-yl)phenyl)amino)-3-methylbenzo[d]oxazol-2(3H)-one]
8 | 0.1 to 100 | Cn1c(=O)oc2ccc(Nc3ccc(N4CCCCC4)cc3)cc21 [Compound 389, 3-methyl-5-((4-(piperidin-1-yl)phenyl)amino)benzo[d]oxazol-2(3H)-one]
9 | 0.1 to 100 | CCn1c(=O)oc2ccc(Nc3ccc(N4CCC(C(F)(F)F)CC4)cc3)cc21 [Compound 392, 3-ethyl-5-((4-(4-(trifluoromethyl)piperidin-1-yl)phenyl)amino) benzo[d]oxazol-2(3H)-one]
10 | 0.1 to 100 | Cn1c(=O)n(C)c2cc(Nc3ccc(C4CCCCC4)cc3)ccc21 [Compound 394, 5-((4-cyclohexylphenyl)amino)-1,3-dimethyl-1,3-dihydro-2H-benzo[d]imidazol-2-one]
11 | 0.1 to 100 | COc1cc(Nc2ccc(N3CCC(C(F)(F)F)CC3)cc2)cc2c1ccn2C [Compound 395, 4-methoxy-1-methyl-N-(4-(4-(trifluoromethyl)piperidin-1-yl)phenyl)-1H-indol-6-amine]
12 | 0.1 to 100 | NC(=O)n1ncc2cc(Nc3ccc(N4CCC(C(F)(F)F)CC4)cc3)ccc21 [Compound 398, 5-((4-(4-(trifluoromethyl)piperidin-1-yl)phenyl)amino)-1H-indazole-1-carboxamide]

More lines, now with the values behind:

Row | SMILES | EC50 [nM]
13 | Cn1c(=O)n(C)c2cc(Nc3ccc(N4CCC(C(F)(F)F)CC4)cc3C#N)ccc21 [Compound 374, 2-((1,3-dimethyl-2-oxo-2,3-dihydro-1H-benzo[d]imidazol-5-yl)amino)-5-(4-(trifluoromethyl)piperidin-1-yl)benzonitrile] | 0.1 to 100
14 | CC1CCN(c2ncc(Nc3ccc4c(c3)n(C)c(=O)n4C)cn2)CC1 [Compound 376, 1,3-dimethyl-5-((2-(4-methylpiperidin-1-yl)pyrimidin-5-yl)amino)-1,3-dihydro-2H-benzo[d]imidazol-2-one] | 0.1 to 100
15 | Cn1c(=O)n(C)c2cc(Nc3cnc(N4CCC(C(F)(F)F)CC4)c(F)c3)ccc21 [Compound 378, 5-((5-fluoro-6-(4-(trifluoromethyl)piperidin-1-yl)pyridin-3-yl)amino)-1,3-dimethyl-1,3-dihydro-2H-benzo[d]imidazol-2-one] | 0.1 to 100
16 | COc1cc(N2CCC(C(F)(F)F)CC2)ncc1Nc1ccc2c(c1)n(C)c(=O)n2C [Compound 380, 5-((4-methoxy-6-(4-(trifluoromethyl)piperidin-1-yl)pyridin-3-yl)amino)-1,3-dimethyl-1,3-dihydro-2H-benzo[d]imidazol-2-one] | 0.1 to 100
17 | Cn1c(=O)n(C)c2cc(Nc3ccccc3)ccc21 [Compound 382, 1,3-dimethyl-5-(phenylamino)-1,3-dihydro-2H-benzo[d]imidazol-2-one] | 0.1 to 100
18 | Cn1cc(C(N)=O)c2cc(Nc3ccc(N4CCC(C(F)(F)F)CC4)cc3)ccc21 [Compound 383, 1-methyl-5-((4-(4-(trifluoromethyl)piperidin-1-yl)phenyl)amino)-1H-indole-3-carboxamide] | 0.1 to 100
19 | COC1(C(F)(F)F)CCN(c2ccc(Nc3ccc4c(c3)n(C)c(=O)n4C)cc2)CC1 [Compound 384, 5-((4-(4-methoxy-4-(trifluoromethyl)piperidin-1-yl)phenyl)amino)-1,3-dimethyl-1,3-dihydro-2H-benzo[d]imidazol-2-one] | 0.1 to 100
20 | Cn1c(=O)n(C)c2cc(Nc3ccc(N4CCC(CF)CC4)cc3)ccc21 [Compound 385, 5-((4-(4-(fluoromethyl)piperidin-1-yl)phenyl)amino)-1,3-dimethyl-1,3-dihydro-2H-benzo[d]imidazol-2-one] | 0.1 to 100
21 | COC1(C(F)(F)F)CCN(c2ccc(Nc3ccc4c(c3)oc(=O)n4C)cc2)CC1 [Compound 386, 6-((4-(4-methoxy-4-(trifluoromethyl)piperidin-1-yl)phenyl)amino)-3-methylbenzo[d]oxazol-2(3H)-one] | 0.1 to 100
22 | Cn1c(=O)oc2ccc(Nc3cnc(N4CCC(C(F)(F)F)CC4)c(F)c3)cc21 [Compound 388, 5-((5-fluoro-6-(4-(trifluoromethyl)piperidin-1-yl)pyridin-3-yl)amino)-3-methylbenzo[d]oxazol-2(3H)-one] | 0.1 to 100
23 | COC1(C(F)(F)F)CCN(c2ccc(Nc3ccc4oc(=O)n(C)c4c3)cc2)CC1 [Compound 390, 5-((4-(4-methoxy-4-(trifluoromethyl)piperidin-1-yl)phenyl)amino)-3-methylbenzo[d]oxazol-2(3H)-one] | 0.1 to 100
24 | Cn1c(=O)oc2ccc(Nc3ccc(N4CCC(CF)CC4)cc3)cc21 [Compound 391, 5-((4-(4-(fluoromethyl)piperidin-1-yl)phenyl)amino)-3-methylbenzo[d]oxazol-2(3H)-one] | 0.1 to 100
25 | COCCn1c(=O)oc2ccc(Nc3ccc(N4CCC(C(F)(F)F)CC4)cc3)cc21 [Compound 393] | 0.1 to 100
26 | Cn1c(NCC2CC2)cc2ccc(Nc3ccc(N4CCC(C(F)(F)F)CC4)cc3)cc21 [Compound 396, N2-(cyclopropylmethyl)-1-methyl-N6-(4-(4-(trifluoromethyl)piperidin-1-yl)phenyl)-1H-indole-2,6-diamine] | 0.1 to 100
27 | Cn1c(N(CC2CC2)CC2CC2)cc2ccc(Nc3ccc(N4CCC(C(F)(F)F)CC4)cc3)cc21 [Compound 397, N2,N2-bis(cyclopropylmethyl)-1-methyl-N6-(4-(4-(trifluoromethyl)piperidin-1-yl)phenyl)-1H-indole-2,6-diamine] | 0.1 to 100
